# Assay results: US11053468B2, “Multiwell cell culture system having rotating shafts for mixing culture media and method of use thereof” (The Johns Hopkins University, priority 2015, dated 2021)
# How the values were obtained:
# [1] = system: forebrain organoids; assay: Long-term BPA treatment of forebrain organoids (days 14 to 28), relative VZ thickness; format: cell-based, human; conditions: treatment from days 14 to 28; forebrain organoids in SpinΩ
# Protocol: (§1) The apparent homogeneity of forebrain organoids, small volume per condition, and multi-well format of SpinΩ comprise a platform that is amenable to chemical compound testing. As a proof of principle, we tested the effect of Bisphenol A (BPA), which is commonly found in household plastic products and is known to affect rodent neural development.
# Forebrain organoids were grown using the protocol described above. For the long-term BPA treatment experiment, forebrain organoids at day 14 from the same batch were distributed randomly into separate wells within SpinQ and treated with different concentrations of BPA (Sigma). BPA was dissolved in sequential dilutions in differentiation media with 0.05% methanol, which was also added in the control condition. Media containing BPA was replaced every other day until analysis on day 28. […] Quantification was conducted by investigators blind to culture conditions.
# Organoids grown from the “intrinsic protocol” and forebrain protocol were immunostained for SOX2, TUJ1 and CTIP2 at days 14 and 28. […] The length for VZ and outer layer was measured in ImageJ™ software. […] Relative thicknesses for VZ, SVZ and CP were calculated by the ratio to total thickness from ventricular to pial surface.
# [2] = system: human developing cerebral cortex organoids; assay: Toxin screening of BPA in the 12-well culture system, proliferation of neuronal precursor cells; format: cell-based; conditions: different concentrations of BPA
# Protocol: Culture conditions were systemically tested to optimize protocols. Additionally, screening was performed to test the effects of Bisphenol A (BPA) on neurogenesis in the organoid system.
# Toxin screening was performed using the 12-well culture system. Images of the effect of different concentrations of BPA on human developing cerebral cortex organoids were taken (data not shown).
# [3] = system: NPCs in forebrain organoids; assay: Acute BPA treatment of forebrain organoids (24 hr), EdU pulse-labeling and PH3 immunostaining; format: cell-based, human; conditions: acute treatment with higher BPA concentrations for 24 hr
# Protocol: as §1
# For the acute BPA treatment experiment, forebrain organoids were grown to day 28 and treated with corresponding concentrations of BPA for 24 hr. At day 29, the culture media was replaced with fresh media and washed 3 times to remove residual BPA. Organoids were then pulsed with 10 μM EdU for 2 hr. The media was then replaced and organoids were washed 3 times with fresh media. At day 30, organoids were fixed for immunohistochemistry and EdU detection using Click-iT® EdU Alexa Fluor® 488 Imaging Kit (ThermoFisher C10337) according to the manufacturer's manual, followed by immunostaining for SOX2 and PH3. Images were acquired with a Zeiss' LSM 700 Confocal system at 25× magnification. Quantification was performed by counting the number of EdU and PH3+ nuclei within SOX2+ ventricular structures that were defined by neural tube-like morphology. EdU and PH3 densities were normalized to the area of ventricular structures measured in ImageJ software. Quantification was conducted by investigators blind to culture conditions.
# [4] = system: forebrain organoids; assay: Signaling-molecule treatment of embryoid bodies during the Matrigel stage, activated caspase-3 (CAS3) immunostaining; format: cell-based, human; conditions: for number of CAS3+ cells at day 14: combined treatment with the three factors CHIR99021, WNT3A and SB-431542 during the Matrigel stage
# Text: To reduce tissue heterogeneity, we pre-patterned embryoid bodies to the fate of a specific brain region. We first treated human iPSCs with dual SMAD inhibitors (dorsomorphin and A-83) for 7 days and then embedded embryoid bodies in Matrigel for another 7 days, followed by Matrigel removal and spinning in SpinΩ (FIG. 12). Compared to the “intrinsic protocol,” we could reliably generate organoids from multiple iPSC lines with reduced heterogeneity in organoid shape and size (data not shown). However, there was significant cell death within organoids, as shown by activated caspase-3 (CAS3) immune-staining (data not shown). We then tested combinations of different signaling molecules for various durations. […] Later, we determined that the WNT3A contribution was minimal, likely because WNT3A and CHIR99021 activate the same downstream signaling pathway (data not shown). At day 14, well-defined polarized neuroepithelium-like structures resembled neural tubes, with a nearly pure population of NESTIN+SOX2+ NPCs and expression of adherent junction markers (b-CATENIN and PKC1) and proliferation marker phosphohistone H3 (PH3) near the ventricular surface (data not shown). […] Upon spinning in SpinΩ, organoids developed into multi-layer stratified structures, composed of SOX2+NPCs, TBR2+ intermediate progenitor cells (IPCs), and CTIP2+ neurons (data not shown). With a small volume, it became affordable to supplement media with growth factors at later stages (data not shown).
# To generate forebrain-specific organoids, human iPSC colonies were detached 7 days after passage with Collagenase Type IV, washed with fresh stem cell medium and cultured in a 15 ml conical tube. On day 1, detached and washed iPSC colonies were transferred to an Ultra-Low attachment 6-well plate (Corning Costar), containing 3 ml of stem cell medium (without FGF-2), plus 2 μM Dorsomorphine (Sigma) and 2 μM A83-01 (Tocris). On days 5-6, half of the medium was replaced with induction medium consisting of DMEM:F12, 1×N2 Supplement (Invitrogen), 10 μg/ml Heparin (Sigma), 1× Penicillin/Streptomycin, 1× Non-essential Amino Acids, 1× Glutamax, 4 ng/ml WNT-3A (R&D Systems), 1 μM CHIR99021 (Cellagentech), and 1 μM SB-431542 (Cellagentech). On day 7, organoids were embedded in Matrigel (BD Biosciences) and continued to grow in induction medium for 6 more days. On day 14, embedded organoids were mechanically dissociated from Matrigel by pipetting up and down onto the plate with a 5 ml pipette tip. Typically, 10-20 organoids were transferred to each well of a 12-well spinning bioreactor (FIGS. 1-11) containing differentiation medium, consisting of DMEM:F12, 1×N2 and B27 Supplements (Invitrogen), 1× Penicillin/Streptomycin, 1×2-Mercaptoenthanol, 1× Non-essential Amino Acids, 2.5 μg/ml Insulin (Sigma). […]
molecule,measurement,setting,value
"CC(C)(c1ccc(O)cc1)c1ccc(O)cc1 [BPA, Bisphenol A]",relative VZ thickness at day 28,[1],dose-dependent decrease
same,proliferation rate of neuronal precursor cells in human organoids,[2],dose-dependent effect
same,density of PH3+ NPCs,[3],decreased density
same,density of EdU+ NPCs,[3]; then EdU pulse,decreased density
Cc1c[nH]c(-c2cnc(NCCNc3ccc(C#N)cn3)nc2-c2ccc(Cl)cc2Cl)n1 [CHIR99021],number of CAS3+ cells at day 14,[4],drastically reduced
NC(=O)c1ccc(-c2nc(-c3ccc4c(c3)OCO4)c(-c3ccccn3)[nH]2)cc1 [SB-431542],number of CAS3+ cells at day 14,[4],drastically reduced
"WNT3A: recombinant WNT3A protein (protein, UniProt P56704 19-352, looked up) Protein Wnt-3a: SYPIWWSLAVGPQYSSLGSQPILCASIPGLVPKQLRFCRNYVEIMPSVAEGIKIGIQECQHQFRGRRWNCTTVHDSLAIFGPVLDKATRESAFVHAIASAGVAFAVTRSCAEGTAAICGCSSRHQGSPGKGWKWGGCSEDIEFGGMVSREFADARENRPDARSAMNRHNNEAGRQAIASHMHLKCKCHGLSGSCEVKTCWWSQPDFRAIGDFLKDKYDSASEMVVEKHRESRGWVETLRPRYTYFKVPTERDLVYYEASPNFCEPNPETGSFGTRDRTCNVSSHGIDGCDLLCCGRGHNARAERRREKCRCVFHWCCYVSCQECTRVYDVHTCK",number of CAS3+ cells at day 14,[4],drastically reduced
same,contribution to the reduction of CAS3+ cells,"[4]; within the three-factor treatment, WNT3A and CHIR99021 activate the same downstream pathway",minimal
